Results: patent US6333338A, “Bispiperidines as antithrombotic agents” (Laboratoire L. Lafon, priority 1998, dated 2001)
Structures can show the parent of a compound that is named as a salt. Where two headings read alike, the source gives them in different places.

Experiments:
guinea pig platelets [1] = experiment: In vitro inhibition of collagen-induced platelet aggregation, guinea pig platelets (PRP); type: cell-based, guinea pig (male Dunkin-Hartley); conditions: Cavia porcellus, Platelet, 0.05 h, collagen 1 μg/ml, 3 minutes of contact at 37° C.
Description: (§1) A study of the inhibitory activity of the compounds of formula I on platelet aggregation was carried out in vitro, i.e. by direct contact of solutions of variable concentrations of the compounds with platelets freshly separated from a sample of total blood, taken under standardized conditions, from laboratory animals (guinea pigs) and from healthy human subjects who have not received any substances or drugs that might interfere with blood clotting. The anti-platelet-aggregating activity was also studied ex vivo/vitro, i.e. after administration of the substances claimed to guinea pigs to measure the intensity and duration of the anti-aggregating action induced by the fraction of the test product absorbed and circulating in the blood.
Blood is taken by intracardiac puncture from male Dunkin-Hartley guinea pigs (weighing about 330 g), at a rate of 4.5 ml per 0.5 ml of trisodium citrate (concentration of the aqueous solution: 1.55%) in order to prevent all trace of clotting. The platelet-rich plasma (PRP) is obtained by centrifuging the tubes of total blood for 15 minutes at 150 g.
The PRPs are collected as "pools". The platelets contained in these pools are counted using a Coulter ZM haematology automatic device: if necessary, a dilution is carried out in order for the platelet concentration in the plasma to be between 200,000 and 400,000 platelets/mm^3. Simultaneously, other samples of these pools serve to prepare the platelet-poor plasma (PPP) by centrifugation at 1500 g for 15 minutes.
The kinetic study of the platelet aggregation is carried out by adding a collagen solution (1 μg/ml) to a volume of PRP, using a Chrono-log Corporation aggregometer (490-D1 or 560 VS) which uses an optical detection of the appearance of the thrombus.
The measurements of the aggregation inhibition are carried out after 3 minutes of contact at 37° C. with agitation.

human platelets = experiment: In vitro inhibition of collagen-induced platelet aggregation, human platelets (PRP); type: cell-based; conditions: 0.05 h, collagen 5 μg/ml, 3 minutes of contact at 37° C., read-out: IC50 (M) in vitro, Man
Description: as §1
Venous blood is taken from a group of ten healthy human subjects of the same age, by puncture into a vein of the fold of the elbow and is collected in a glass tube containing aqueous 0.129 M sodium citrate solution (1 volume of citrate solution per 9 volumes of blood). Each tube is then centrifuged a first time at 20° C. and 100 g for 15 minutes in order to obtain the platelet-rich plasma (PRP); after removing this PRP, the tube is again centrifuged at 2000 g for 15 minutes in order this time to remove the platelet-poor plasma (PPP).
For each identified sample of PRP, the platelets are counted using a Coulter ZM counter. Each sample is then used to study the variation in inhibition of the platelet aggregation triggered by the addition of a Chromo-par Reagent collagen glucose solution from Coultronics (used at a concentration of 5 μg/ml) as a function of the addition of increasing concentrations of each compound in a range covering the interval 10^-8 M→10^-5 M, (example of concentrations: 10^-8 M, […], 6×10^-6 M, 4×10^-6 M, 2×10^-6 M, 10^-6 M, […], 10^-5 M). Beforehand, for each compound, an aqueous 10^-3 M solution is prepared. A control test intended to check the possible effect of the solvents (reference value) on the platelet aggregation is introduced into each measurement series, and is measured after 3 minutes of contact at 37° C. with agitation.
From the percentages of inhibition of the platelet aggregation measured for each concentration of each compound, the 50% inhibitory concentration (IC50) is calculated.

guinea pig platelets [2] = experiment: Ex vivo/vitro inhibition of platelet aggregation after administration via the gastric route in guinea pigs; design: species or system guinea pig (Dunkin-Hartley); conditions: Cavia porcellus, Platelet, fasted guinea pigs
Description: as §1, with “blood. Evaluation of the anti-platelet-aggregating activity of the compounds is carried out in the same guinea pigs as those mentioned above (Dunkin-Hartley strain). […] The allocation of the treatments to the animals is random. The blood is taken and then treated under the same conditions as those described above for the in vitro studies. The results of the inhibition of the platelet aggregation obtained for each test concentration make it possible to calculate the IC50 concentration of each test product and the kinetics of the inhibitory effect and its duration of action.” for “blood.”

[3] = 1 h before blood sampling, read-out: % of g.r. inhibition guinea pig ex vivo, d = 10 mg/kg, 1 h
[4] = 1 h before blood sampling, read-out: % of g.r. inhibition guinea pig ex vivo, d = 150 mg/kg, 1 h
[5] = 2 h before blood sampling, read-out: % of g.r. inhibition guinea pig ex vivo, d = 150 mg/kg, 2 h
[6] = 2 h before blood sampling, read-out: % of g.r. inhibition guinea pig ex vivo, d = 10 mg/kg, 2 h

`O=C(O)CC(NC(=O)CNC(=O)C(CCC1CCNCC1)CCC1CCNCC1)c1ccc2c(c1)OCO2` (stereo not drawn) [Example 5, 3-(1,3-Benzodioxol-5-yl)-3-{[2-({4-(4-piperidyl)-2-[2-(4-piperidyl)ethyl]butanoyl}amino)acetyl]amino}-propanoic Acid Dihydrochloride] was tested, and the IC50 (guinea pig platelets [1]) was 2 µM, the IC50 (human platelets) was 2.8e-07 M and the inhibition at 10 mg/kg (guinea pig platelets [2]; [3]) was -15%. The inhibition at 150 mg/kg (guinea pig platelets [2]; [4]) was -63% and the inhibition at 150 mg/kg (guinea pig platelets [2]; [5]) was -66%.
`CC(C)c1ccc(C(CC(=O)O)NC(=O)CNC(=O)C(CCC2CCNCC2)CCC2CCNCC2)cc1` (stereo not drawn) [Example 6, 3-(4-Isopropylphenyl)-3-{[2-({4-(4-piperidyl)-2-[2-(4-piperidyl)ethyl]butanoyl}amino)acetyl]amino}propanoic Acid Dihydrochloride] was tested, and the IC50 (guinea pig platelets [1]) was 14 µM, the IC50 (human platelets) was 2.7e-06 M and the inhibition at 150 mg/kg (guinea pig platelets [2]; [4]) was -9%. The inhibition at 150 mg/kg (guinea pig platelets [2]; [5]) was -4%.
In the case of `COc1ccc(C(CC(=O)O)NC(=O)CNC(=O)C(CCC2CCNCC2)CCC2CCNCC2)cc1OC` (stereo not drawn) [Example 8, 3-(3,4-Dimethoxyphenyl)-3-{[2-({4-(4-piperidyl)-2-[2-(4-piperidyl)ethyl]butanoyl}amino)acetyl]amino}propanoic Acid Dihydrochloride], the IC50 (guinea pig platelets [1]) is reported as 35 µM, the IC50 (human platelets) is reported as 1.6e-06 M and the inhibition at 150 mg/kg (guinea pig platelets [2]; [4]) is reported as -10%. For the same compound, the inhibition at 150 mg/kg (guinea pig platelets [2]; [5]) was -31%.
`COc1cccc(C(CC(=O)O)NC(=O)CNC(=O)C(CCC2CCNCC2)CCC2CCNCC2)c1` (stereo not drawn) [Example 10, 3-(3-Methoxyphenyl)-3-{[2-({4-(4-piperidyl)-2-[2-(4-piperidyl)ethyl]butanoyl}amino)acetyl]amino}propanoic Acid Dihydrochloride] was tested, and the IC50 (guinea pig platelets [1]) was 13 µM, the IC50 (human platelets) was 9.2e-07 M and the inhibition at 150 mg/kg (guinea pig platelets [2]; [4]) was -14%. The inhibition at 150 mg/kg (guinea pig platelets [2]; [5]) was -18%.
`O=C(O)CC(NC(=O)CNC(=O)C(CCC1CCNCC1)CCC1CCNCC1)c1cccnc1` (stereo not drawn) [Example 12, 3-(3-Pyridyl)-3-{[2-({4-(4-piperidyl)-2-[2-(4-piperidyl)ethyl]butanoyl}amino)acetyl]amino}propanoic Acid Trihydrochloride] showed an IC50 (guinea pig platelets [1]) of 0.98 µM, an IC50 (human platelets) of 1.5e-06 M and an inhibition at 150 mg/kg (guinea pig platelets [2]; [4]) of -74%. It also gave an inhibition at 150 mg/kg (guinea pig platelets [2]; [5]) of -68%.
`O=C(O)CC(CCc1ccccc1)NC(=O)CNC(=O)C(CCC1CCNCC1)CCC1CCNCC1` (stereo not drawn) [Example 15, 5-Phenyl-3-{[2-({4-(4-piperidyl)-2-[2-(4-piperidyl)ethyl]butanoyl}amino)acetyl]amino}pentanoic Acid Dihydrochloride] was tested, and the IC50 (guinea pig platelets [1]) was 4.3 µM, the IC50 (human platelets) was 1.5e-07 M and the inhibition at 150 mg/kg (guinea pig platelets [2]; [4]) was -84%. The inhibition at 150 mg/kg (guinea pig platelets [2]; [5]) was -26%.
`O=C(O)C[C@H](NC(=O)CNC(=O)C(CCC1CCNCC1)CCC1CCNCC1)C(=O)NC12CC3CC(CC(C3)C1)C2` [Example 16, (3S)-4-(1-Adamantylamino)-4-oxo-3-{[2-({4-(4-piperidyl)-2-[2-(4-piperidyl)ethyl]butanoyl}amino)acetyl]amino}butanoic Acid Dihydrochloride] gave an IC50 (guinea pig platelets [1]) of 3.5 µM, an IC50 (human platelets) of 8.5e-07 M and an inhibition at 10 mg/kg (guinea pig platelets [2]; [3]) of -5%. For the same compound, the inhibition at 150 mg/kg (guinea pig platelets [2]; [4]) was -54% and the inhibition at 150 mg/kg (guinea pig platelets [2]; [5]) was -47%.
With `O=C(O)C[C@H](NC(=O)CNC(=O)C(CCC1CCNCC1)CCC1CCNCC1)C(=O)NCCc1cccc2[nH]ccc12` [Example 17, (3S)-4-{[2-(1H-Indol-4-yl)ethyl]amino}-4-oxo-3-{[2-({4-(4-piperidyl)-2-[2-(4-piperidyl)ethyl]butanoyl}amino)acetyl]amino}butanoic Acid Dihydrochloride] the IC50 (guinea pig platelets [1]) was 7.4 µM, the IC50 (human platelets) was 6e-06 M and the inhibition at 150 mg/kg (guinea pig platelets [2]; [4]) was -19%.
With `O=C(CNC(=O)C(CCC1CCNCC1)CCC1CCNCC1)NCC(NS(=O)(=O)c1ccccc1)C(=O)O` (stereo not drawn) [Example 26, 2-[(Phenylsulphonyl)amino]-3-{[2-({4-(4-piperidyl)-2-[2-(4-piperidyl)ethyl]butanoyl}amino)acetyl]amino}propanoic Acid Dihydrochloride] the IC50 (guinea pig platelets [1]) was 0.44 µM, the IC50 (human platelets) was 5.3e-07 M and the inhibition at 10 mg/kg (guinea pig platelets [2]; [3]) was -41%. For the same compound, the inhibition at 10 mg/kg (guinea pig platelets [2]; [6]) was -20%, the inhibition at 150 mg/kg (guinea pig platelets [2]; [4]) was -77% and the inhibition at 150 mg/kg (guinea pig platelets [2]; [5]) was -68%.
`CCCc1ccc(S(=O)(=O)NC(CNC(=O)CNC(=O)C(CCC2CCNCC2)CCC2CCNCC2)C(=O)O)cc1` (stereo not drawn) [Example 28, 2-{[(4-Propylphenyl)sulphonyl]amino}-3-{[2-({4-(4-piperidyl)-2-[2-(4-piperidyl)ethyl]butanoyl}amino)acetyl]amino}propanoic Acid Dihydrochloride] was tested, and the IC50 (guinea pig platelets [1]) was 1.5 µM, the IC50 (human platelets) was 1.1e-06 M and the inhibition at 10 mg/kg (guinea pig platelets [2]; [3]) was -18%. It also gave an inhibition at 150 mg/kg (guinea pig platelets [2]; [4]) of -73% and an inhibition at 150 mg/kg (guinea pig platelets [2]; [5]) of -75%.
`O=C(O)C[C@H](NC(=O)CNC(=O)C(CCC1CCNCC1)CCC1CCNCC1)C(=O)N1CCC(Cc2ccccc2)CC1` [Example 29, (3S)-4-oxo-4-(4-Benzylpiperidino)-3-{[2-({4-(4-piperidyl)-2-[2-(4-piperidyl)ethyl]butanoyl}amino)acetyl]amino}-butanoic Acid Dihydrochloride] gave an IC50 (guinea pig platelets [1]) of 13 µM, an IC50 (human platelets) of 1e-05 M and an inhibition at 150 mg/kg (guinea pig platelets [2]; [4]) of -35%. The inhibition at 150 mg/kg (guinea pig platelets [2]; [5]) was -23%.
`O=C(CNC(=O)C(CCC1CCNCC1)CCC1CCNCC1)NCC(NS(=O)(=O)c1ccc(-c2ccccc2)cc1)C(=O)O` (stereo not drawn) [Example 30, 2-[([1,1-Biphenyl]-4-ylsulphonyl)amino]-3-{[2-({4-(4-piperidyl)-2-[2-(4-piperidyl)ethyl]butanoyl}amino)acetyl]amino}propanoic Acid Dihydrochloride] showed an IC50 (guinea pig platelets [1]) of 0.12 µM, an IC50 (human platelets) of 1.4e-07 M and an inhibition at 10 mg/kg (guinea pig platelets [2]; [3]) of -67%. It also gave an inhibition at 150 mg/kg (guinea pig platelets [2]; [5]) of -72%.
Work on `O=C(CNC(=O)C(CCC1CCNCC1)CCC1CCNCC1)NCC(NS(=O)(=O)c1cccc2ccccc12)C(=O)O` (stereo not drawn) [Example 31, 2-[(1-Naphthylsulphonyl)amino]-3-{[2-({4-(4-piperidyl)-2-[2-(4-piperidyl)ethyl]butanoyl}amino)acetyl]amino}propanoic Acid Dihydrochloride] yielded an IC50 (guinea pig platelets [1]) of 0.044 µM, an IC50 (human platelets) of 5.8e-07 M and an inhibition at 10 mg/kg (guinea pig platelets [2]; [3]) of -81%. It also gave an inhibition at 10 mg/kg (guinea pig platelets [2]; [6]) of -81%.
Work on `O=C(CNC(=O)C(CCC1CCNCC1)CCC1CCNCC1)NCC(NS(=O)(=O)c1cccs1)C(=O)O` (stereo not drawn) [Example 33, 2-[(2-Thienylsulphonyl)amino]-3-{[2-({4-(4-piperidyl)-2-[2-(4-piperidyl)ethyl]butanoyl}amino)acetyl]amino}propanoic Acid Dihydrochloride] yielded an IC50 (guinea pig platelets [1]) of 0.71 µM, an IC50 (human platelets) of 4.9e-07 M and an inhibition at 10 mg/kg (guinea pig platelets [2]; [3]) of -14%. It also gave an inhibition at 10 mg/kg (guinea pig platelets [2]; [6]) of -5%.
